Common to all, as to format: in vivo
Test [1] concerns brain serotonin. The test is described as follows: Brain serotonin content in ovariectomized mice. The following applies: OVX mice. As for the experimental part:
(§1) Six-week-old wild-type virgin female mice were purchased from the Jackson Laboratories and subjected to either bilateral ovariectomy or a sham operation after a few days of acclimatization to the animal facility post-arrival. Ovariectomy was performed under isofluorane anesthesia through dorsal, subrenal incision. In the first experiment, mice were treated from day 1 post-ovariectomy for 4 weeks with LP-533,401 (1, 10, 100 or 250 mg/kg/day) or vehicle. In the second experiment, mice were treated for 4 weeks from 2 to 6-weeks post-ovariectomy with LP-533,401 (250 mg/kg/day) or vehicle. In the third set of experiments, mice were treated for 6 weeks from 6 to 12-weeks post-ovariectomy with LP-533,401 (250 mg/kg/day) or vehicle. […]
(§2) Blood samples were collected from mice and rats through cardiac puncture under isoflurane anesthesia, kept on ice for 5 min, and centrifuged at 13,000 rpm for 10 min at 4° C. […] Serum serotonin levels were quantified by ELISA (Serotonin kit, Fitzgerald) while serotonin levels in brain regions were quantified by HPLC as described previously (Mann et al., 1992, Arch. Gen. Psychiatry 49:442-446). Serum levels of total deoxypyridinoline (DPD) cross-links was measured using the Merta tDPD kit (Quidel corp. Sandiago, Calif.) and Osteocalcin using Rat and Mouse Ocn IRMA kit.

Test [2] has as its system ovariectomized mice. Nature of the test: Bone histomorphometry in ovariectomized mice, preventive and curative regimen. As for the experimental part:
Six-week-old wild-type virgin female mice were purchased from the Jackson Laboratories and subjected to either bilateral ovariectomy or a sham operation after a few days of acclimatization to the animal facility post-arrival. Ovariectomy was performed under isofluorane anesthesia through dorsal, subrenal incision. In the first experiment, mice were treated from day 1 post-ovariectomy for 4 weeks with LP-533,401 (1, 10, 100 or 250 mg/kg/day) or vehicle. In the second experiment, mice were treated for 4 weeks from 2 to 6-weeks post-ovariectomy with LP-533,401 (250 mg/kg/day) or vehicle. […] LP-533,401 was dissolved in polyethylene glycol:5% dextrose (40:60) and given daily by gavage at the doses indicated. Animals were observed daily for any behavioral abnormalities. Mice were sacrificed at the end of the experimental regimen and processed for the skeletal and physiological analysis.
Bone histomorphometry was performed as previously described (Duey et al., 2000, Cell 100:197-207; Takeda et al., 2002, Cell 111:305-317; Parfitt et al., 1987, J. Bone Miner. Res. 2:595-610). Briefly, lumbar vertebrae were dissected, fixed for 24 hr in 10% formalin, dehydrated in graded ethanol series, and embedded in methyl methacrylate resin according to standard protocols (Parfitt et al., 1987, J. Bone Miner. Res. 2:595-610). Von Kossa/Von Gieson staining was performed using 7 μm sections for bone volume over tissue volume (BV/TV) measurement. Bone formation rate (BFR) was analyzed by the calcein double-labeling method (Ducy et al., 2000, Cell 100:197-207). Calcein (Sigma Chemical Co., St. Louis, Mo.) was dissolved in calcein buffer (0.15 M NaCl, 2% NaHCO3) and injected twice at 0.125 mg/g body weight on day 1 and 4, and then mice were killed on day 6. Unstained 4 μm sections were used for bone formation rate (BFR) measurements. For the analysis of parameters of osteoblasts and osteoclasts, 4 μm sections were stained with toluidine blue and tartrate-resistant acid phosphatase (TRAP), respectively (2). Histomorphometric analyses were performed using the Osteomeasure Analysis System (Osteometrics, Atlanta, Ga.).
Blood samples were collected from mice and rats through cardiac puncture under isoflurane anesthesia, kept on ice for 5 min, and centrifuged at 13,000 rpm for 10 min at 4° C. Serum samples were stored at −80° C. until hormonal analyses were performed. Serum serotonin levels were quantified by ELISA (Serotonin kit, Fitzgerald) while serotonin levels in brain regions were quantified by HPLC as described previously (Mann et al., 1992, Arch. Gen. Psychiatry 49:442-446). Serum levels of total deoxypyridinoline (DPD) cross-links was measured using the Merta tDPD kit (Quidel corp. Sandiago, Calif.) and Osteocalcin using Rat and Mouse Ocn IRMA kit.

Test [3] has as its system serum serotonin. Nature of the test: Serum serotonin levels in ovariectomized mice. The following applies: OVX mice. As for the experimental part: as §1, §2
For test [4], the system named is peripheral serotonin. The test is described as follows: Peripheral serotonin levels in wild-type mice (Example 11). The following applies: 5 mice per compound. As for the experimental part: Serotonin serum levels were quantified using immunoassay kits from Fitzgerald (Serotonin) and serotonin levels in the different regions of the brain were quantified by HPLC method as described previously (Mann et al., 1992, Arch. Gen. Psychiatry 49:442-446).
The following three compounds were tested for their ability to effect peripheral serotonin levels in wild-type mice:
Also tested as a negative control was vehicle alone. Each compound as well as vehicle was administered to 5 mice and the resulting peripheral serotonin levels were as follows: […]

Where [5] appears, read: 250 mg/kg/day for 4 weeks from week 2 post-ovariectomy.
[6] abbreviates: OVX mice, 250 mg/kg/day for 4 weeks from week 2 post-ovariectomy.
Setting [7] is: OVX mice, day 1 to 28 post-ovariectomy.

Turning to `Nc1nc(OC(c2ccc(-c3cccc(F)c3)cc2)C(F)(F)F)cc(-c2ccc(C[C@H](N)C(=O)O)cc2)n1` (stereo partly drawn) [LP-533401, (2S)-2-amino-3-(4-(2-amino-6-(2,2,2-trifluoro-1-(3′-fluorobiphenyl-4-yl)ethoxy)pyrimidin-4-yl)phenyl)propanoic acid], in test [1] (setting [5]), the brain serotonin content result was “unaffected”. In test [1] (day 1 to 28 post-ovariectomy), the brain serotonin content entry is reported as “unaffected”. In addition, in test [2] (OVX mice, 25 mg/kg/day for 6 weeks from week 6 post-ovariectomy), the “bone mass versus sham-operated mice” value is listed as “similar”. For the same molecule, in test [2] (setting [6]), the bone mass result was “normalized” and the bone resorption parameters entry is listed as “increased”. In addition, in test [2] (OVX mice, 100 or 250 mg/kg/day for 6 weeks from week 6 post-ovariectomy), the “bone mass versus sham-operated mice” value is on record as “significantly higher”. Further, the “bone mass versus vehicle-treated ovariectomized mice” value in test [2] (OVX mice, 250, 100 or 10 mg/kg once daily, day 1 to 28 post-ovariectomy) is “higher”. In addition, in test [2] (setting [7]), the “Cyclin D1 expression in the bones” value was “increase”, the bone formation rate result is “major increase”, the osteoblast numbers result is recorded as “major increase” and the osteocalcin serum levels result is “major increase”. For the same molecule, the “decrease of serum serotonin levels” value in test [3] (setting [5]) was 80%. In addition, in test [3] (day 1 to 28 post-ovariectomy), the serum serotonin levels entry is given as “decreased”. Moreover, the “Peripheral serotonin (ng/ml) (mean ± SEM)” value in test [4] was determined as 88.56 ± 12.93 ng/mL.

For the origin of these results see patent US8614222B2, “Methods of preventing and treating low bone mass diseases” (The Trustees of Columbia University in the City of New York, priority 2008, dated 2013).
